Assay results reported in publication PMC7278688, “Anti-Hypertensive Activity of Novel Peptides Identified from Olive Flounder (Paralichthys olivaceus) Surimi” (Foods, 2020).
Entries after “also recorded” stand apart in the source; their conditions may differ. Like-named read-outs stand apart in the source and are kept apart here. Blank lines part the entries; values can stand above or below the molecule they belong to. Where a SMILES comes first, the peptide text is derived from it. Where no end group is shown, it is not given here.

How the values were obtained:
[1] = system: Akt (protein kinase B) in HUVECs; test: Phosphorylation of Akt in HUVECs, Western blot; assay type: cell-based, human; conditions: for phosphorylation level of Akt (in words): 25, 50, and 100 μg/mL, HUVECs pretreated 24 h, triplicate
Procedure: (§1) HUVECs were seeded on 6-well plates at a concentration of 1 × 10* cells/mL. Sixteen hours after seeding, the cells were pretreated with the peptides for 24 h. The experimental procedure was completed as previously described. The primary antibodies (p-Akt, p-eNOS, and β-actin) were used at 1:1000 dilutions and incubated with the membrane at 4 °C overnight. The secondary antibodies were used at 1:3000 dilutions. All antibodies were purchased from Cell Signaling Technology (Beverly, MA, USA).

[2] = system: human umbilical vein endothelial cells (HUVECs); test: NO production in HUVECs (Griess reagent); assay type: cell-based; conditions: 3 h, 540 nm, compared with control
Procedure: Cultures of human umbilical vein endothelial cells (HUVEC, ATCC* CRL-1730) were incubated at 37 °C in a cell incubator supplied with 5% CO2. Cell media compositions were based on those used in a previous study. Furthermore, production of NO was analyzed using Griess reagent (1% sulphanilamide and 0.1% naphthylethylenediamine dihydrochloride in 2.5% phosphoric acid), according to the method described by Ko et al.. HUVEC were seeded in 96-well plates at 1 × 10* cells/mL; after pre-incubation (24 h) the cells were treated without or with three concentrations of peptides (25, 50, and 100 μg/mL) for 3 h. Then the cells were treated with Griess reagent and incubated at 37 °C for 10 min in the dark. The […] was quantified using a microplate reader at 540 nm.

[3] = target: T1, Angiotensin I-converting enzyme (ACE) (Homo sapiens, UniProt P12821); test: ACE inhibitory activity assay (Dojindo ACE kit-WST); assay type: biochemical; design: purchased Dojindo (Kumamoto, Japan); conditions: for IC50: mean ± SD of triplicate experiments, read-out: IC50 value of ACE inhibition
Procedure: The inhibitory activity of ACE was measured using the Dojindo ACE kit-WST (Kumamoto, Japan) in accordance with the manufacturer’s protocols. The principles of the kit have been described in a previous study.
The inhibitory ratios were calculated as follows:Inhibition rate (%) = [(Control − Sample)/(Control − Blank)] × 100(1) where IC50 is the concentration of inhibitor required for 50% inhibition of an enzymatic activity.
Target sequence in this assay (P12821 30-1306, species assumed): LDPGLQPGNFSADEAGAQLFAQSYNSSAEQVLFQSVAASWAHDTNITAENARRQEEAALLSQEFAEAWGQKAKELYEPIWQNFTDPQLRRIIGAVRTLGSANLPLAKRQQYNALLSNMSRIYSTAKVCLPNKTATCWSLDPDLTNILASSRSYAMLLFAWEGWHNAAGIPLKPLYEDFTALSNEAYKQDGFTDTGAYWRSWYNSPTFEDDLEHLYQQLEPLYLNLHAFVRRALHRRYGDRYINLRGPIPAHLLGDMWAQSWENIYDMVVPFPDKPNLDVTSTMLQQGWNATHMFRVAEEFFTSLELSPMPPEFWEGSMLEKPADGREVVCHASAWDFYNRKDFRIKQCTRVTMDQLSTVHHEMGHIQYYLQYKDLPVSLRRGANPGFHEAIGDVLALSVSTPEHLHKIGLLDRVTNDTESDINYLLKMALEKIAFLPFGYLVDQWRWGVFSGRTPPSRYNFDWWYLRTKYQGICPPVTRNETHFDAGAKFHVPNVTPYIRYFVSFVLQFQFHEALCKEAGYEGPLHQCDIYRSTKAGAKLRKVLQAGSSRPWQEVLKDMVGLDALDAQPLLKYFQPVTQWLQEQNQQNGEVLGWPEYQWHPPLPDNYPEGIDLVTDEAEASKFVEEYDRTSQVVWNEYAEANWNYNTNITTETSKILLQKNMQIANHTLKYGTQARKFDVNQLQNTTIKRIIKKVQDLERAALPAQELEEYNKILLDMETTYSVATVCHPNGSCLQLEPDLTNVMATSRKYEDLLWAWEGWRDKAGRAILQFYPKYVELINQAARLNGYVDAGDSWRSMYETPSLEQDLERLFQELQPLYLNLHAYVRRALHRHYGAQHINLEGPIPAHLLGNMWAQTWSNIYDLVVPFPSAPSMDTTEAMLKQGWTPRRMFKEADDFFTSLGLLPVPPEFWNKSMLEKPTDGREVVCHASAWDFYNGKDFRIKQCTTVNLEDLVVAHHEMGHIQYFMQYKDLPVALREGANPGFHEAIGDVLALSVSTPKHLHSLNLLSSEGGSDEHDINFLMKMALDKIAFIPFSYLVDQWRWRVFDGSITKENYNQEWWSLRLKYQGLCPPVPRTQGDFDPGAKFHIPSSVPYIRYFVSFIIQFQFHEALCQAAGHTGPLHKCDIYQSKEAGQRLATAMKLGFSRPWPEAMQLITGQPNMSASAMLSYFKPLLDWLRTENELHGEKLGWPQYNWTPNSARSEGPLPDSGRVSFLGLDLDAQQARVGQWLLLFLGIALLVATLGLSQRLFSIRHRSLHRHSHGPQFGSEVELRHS

[4] = system: spontaneously hypertensive rats (SHRs); test: Systolic blood pressure after oral administration in SHRs (tail-cuff); assay type: in vivo; conditions: for change in blood pressure, overall result (in words): oral administration, 50 mg/kg, SHRs, time not stated; for systolic blood pressure (SBP): 3 h after oral administration, 50 mg/kg in 1 mL saline, 6 SHRs per group, saline group 200–210 mmHg, mean ± SD
Procedure: SHRs with tail SBP over 180 mmHg were obtained from SLC Inc. (Shizuoka, Japan). Seven-week-old male, specific pathogen-free SHRs of approximately 300 g body weight were raised under room temperature (25 °C) with a 12-h light/dark cycle. The rats were fed a normal diet and tap water, with ad libitum feeding. All animals were administrated the dissolved samples in saline solution. The rats were divided into five groups comprised of a control group (saline); a group treated with peptide from sardine (positive control); and groups treated with any of three peptides (IVDR, WYK, and VASVI). Each was orally administered to 6 SHRs at a dose of 50 mg/kg which was dissolved in 1 mL saline. SBP was measured by a tail-cuff method before administration and at 3, 6, and 9 h post-administration using a CODA™ blood pressure monitor (Kent Scientific Corp., Torrington, CT, USA). The animal experiment received approval from the Animal Care and Use Committee of the Jeju National University (Approval NO. 2017-0017) and all experiments were performed in accordance with the guidelines.

[5] = system: endothelial nitric oxide synthase (eNOS) in HUVECs; test: Phosphorylation of eNOS in HUVECs, Western blot; assay type: cell-based, human; conditions: positive control or overall result, concentration not given
Procedure: as §1

[6] = target: T1, Angiotensin I-converting enzyme (ACE); design: purchased Dojindo (Kumamoto, Japan); conditions: cited from earlier work
From the text: Table 1 IC50 values of ACE inhibitory peptides derived from Paralichthys olivaceus surimi. | column: IC50 Value (µM) || Several studies have investigated the relationship between protein intake and blood pressure. […] Our previous study confirmed that surimi manufactured from olive flounder could be used as a beneficial ingredient in dietary protein due to its antihypertensive effect. The study also identified novel peptides derived from surimi. ACE inhibition plays a major physiological role in regulating blood pressure. The current study investigated the ACE inhibition activity of the novel peptides ...
Target sequence in this assay (P12821 30-1306, species assumed): as above

[7] = target: T1, Angiotensin I-converting enzyme (ACE)
Target sequence in this assay (P12821 30-1256): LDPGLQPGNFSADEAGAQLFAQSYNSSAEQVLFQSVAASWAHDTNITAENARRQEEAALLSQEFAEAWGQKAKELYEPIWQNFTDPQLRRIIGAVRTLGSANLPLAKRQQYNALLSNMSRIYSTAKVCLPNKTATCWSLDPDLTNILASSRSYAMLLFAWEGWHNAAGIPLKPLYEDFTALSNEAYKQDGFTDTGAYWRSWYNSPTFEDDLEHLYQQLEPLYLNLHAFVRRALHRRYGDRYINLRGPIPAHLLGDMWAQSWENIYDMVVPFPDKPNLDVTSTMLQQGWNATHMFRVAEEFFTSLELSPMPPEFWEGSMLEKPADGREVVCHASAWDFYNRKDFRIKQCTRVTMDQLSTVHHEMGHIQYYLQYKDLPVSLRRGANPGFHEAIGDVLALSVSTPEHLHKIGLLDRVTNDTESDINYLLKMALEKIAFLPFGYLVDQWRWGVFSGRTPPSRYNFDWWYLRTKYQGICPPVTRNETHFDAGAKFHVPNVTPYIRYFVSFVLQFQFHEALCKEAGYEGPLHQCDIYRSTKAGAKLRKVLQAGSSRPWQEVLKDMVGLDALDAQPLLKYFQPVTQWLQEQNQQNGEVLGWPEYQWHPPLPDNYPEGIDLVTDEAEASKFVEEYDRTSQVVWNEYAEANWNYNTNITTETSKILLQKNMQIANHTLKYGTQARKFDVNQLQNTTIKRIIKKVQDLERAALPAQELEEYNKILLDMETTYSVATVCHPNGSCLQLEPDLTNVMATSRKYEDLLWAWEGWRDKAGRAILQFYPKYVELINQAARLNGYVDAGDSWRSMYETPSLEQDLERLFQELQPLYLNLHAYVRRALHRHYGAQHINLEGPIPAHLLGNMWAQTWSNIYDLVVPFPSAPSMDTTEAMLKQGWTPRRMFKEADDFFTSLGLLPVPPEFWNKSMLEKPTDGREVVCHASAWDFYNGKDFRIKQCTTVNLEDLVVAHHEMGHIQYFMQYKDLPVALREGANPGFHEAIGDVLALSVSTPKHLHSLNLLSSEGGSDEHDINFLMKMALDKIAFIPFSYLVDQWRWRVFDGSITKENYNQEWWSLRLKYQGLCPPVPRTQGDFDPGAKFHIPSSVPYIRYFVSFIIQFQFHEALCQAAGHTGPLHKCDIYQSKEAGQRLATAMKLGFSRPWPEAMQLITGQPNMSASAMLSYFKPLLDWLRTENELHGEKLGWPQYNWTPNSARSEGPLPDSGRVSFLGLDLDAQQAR

[8] = peptides at 25–100 μg/mL, means ± SD of triplicate
[9] = literature peptides for comparison, read-out: IC50 of ACE inhibitory peptides isolated from food proteins

IC50 [3]: 46.9 ± 0.32 µM
Molecule: CC[C@H](C)[C@H](N)C(=O)N[C@H](C(=O)N[C@@H](CC(=O)O)C(=O)N[C@@H](CCCNC(=N)N)C(=O)O)C(C)C [IVDR, Isoleucine-Valine-Aspartic acid-Arginine] (H-IVDR-OH)
phosphorylation level of Akt (in words) [1]: significantly increased
NO production in HUVECs (in words) ([2]; 100 μg/mL): increased the production of NO only slightly
ACE inhibitory activity (in words) [3]: high Angiotensin I-converting Enzyme (ACE) inhibition activity; also recorded: high ACE inhibitory activity
change in blood pressure, overall result (in words) [4]: effective at decreasing SBP in SHRs

IC50 [3]: 33 ± 0.68 µM
Molecule: NCCCC[C@H](NC(=O)[C@H](Cc1ccc(O)cc1)NC(=O)[C@@H](N)Cc1c[nH]c2ccccc12)C(=O)O [WYK, Tryptophan-Tyrosine-Lysine] (H-Trp-Tyr-Lys-OH)
phosphorylation level of Akt (in words) [1]: significantly increased
NO production in HUVECs (in words) [2, 8]: significantly higher
ACE inhibitory activity (in words) [3]: high Angiotensin I-converting Enzyme (ACE) inhibition activity; also recorded: high ACE inhibitory activity
systolic blood pressure (SBP) [4]: 173 ± 4 mmHg
change in blood pressure, overall result (in words) [4]: effective at decreasing SBP in SHRs

Molecule: [Ca+2] [calcium, reference compound]
phosphorylation of Akt (in words) ([1]; HUVECs, positive control or overall result, concentration not given): profoundly increased
phosphorylation of eNOS (in words) [5]: profoundly increased

Molecule: ALGPQFY [from stone fish]
IC50 [6, 9]: 12 µM

Molecule: ANSEVAQWR [from Trichiurus lepturus myosin]
IC50 [6, 9]: 89.6 µM

Molecule: Ala-Ser-Leu [from silkworm pupa]
IC50 [6, 9]: 102 µM

Molecule: Arg-Val-Cys-Leu-Pro (RVCLP) [from lizard fish]
IC50 [6, 9]: 175 µM

Molecule: EALVSQLTR [from Trichiurus lepturus myosin]
IC50 [6, 9]: 91.5 µM

Molecule: Phe-Gly-Als-Ser-Thr-Arg-Gly-Ala (FGASTRGA; printed 'Als' at position 3 read as a typo for Ala) [from Alaska pollock frame]
IC50 [6, 9]: 14.7 µM

IC50 of inhibition of ACE enzymatic activity (Dojindo ACE kit-WST) [7]: 33 µM
Molecule: Trp-Tyr-Lys (WYK) (peptide)

IC50 [3]: 32.7 ± 1.32 µM
Molecule: VASVI [VASVI, Valine-Alanine-Serine-Valine-Isoleucine]
phosphorylation level of Akt (in words) [1]: significantly increased
NO production in HUVECs (in words) [2, 8]: significantly higher
ACE inhibitory activity (in words) [3]: high Angiotensin I-converting Enzyme (ACE) inhibition activity; also recorded: high ACE inhibitory activity
systolic blood pressure (SBP) [4]: 181 ± 2 mmHg
change in blood pressure, overall result (in words) [4]: effective at decreasing SBP in SHRs

Molecule: Val-Tyr [Sardine peptide (Val-Tyr), reference compound]
IC50 ([6]; determined by Matsufuji et al., read-out: IC50 value of ACE inhibition (sardine peptide)): 26 µM
systolic blood pressure (SBP) [4]: 184 ± 2 mmHg
change in blood pressure, overall result (in words) [4]: declined considerably

IC50 of inhibition of ACE enzymatic activity (Dojindo ACE kit-WST) [7]: 32.7 µM
Molecule: VASVI [Val-Ala-Ser-Val-Ile (VASVI)]

IC50 of inhibition of ACE enzymatic activity (Dojindo ACE kit-WST) [7]: 46.9 µM
Molecule: IVDR [Ile-Val-Asp-Arg (IVDR)]
